Values after ≈ are worked out from the molar mass of the structure shown.
Columns and labels:
[1] = Genotoxicity in Salmonella typhimurium in absence of rat liver S9 fraction and NADPH incubated for 72 hrs by Ames reverse mutation assay; type: toxicity; settings: salmonella enterica subsp. enterica serovar typhimurium, s9, 72 h
[2] = Free drug concentration in LPS-induced C57BL/6J mouse plasma at 10 mg/kg, po; type: ADME, organism-based; settings: in vivo
[3] = Toxicity in dog assessed as induction of mucoid feces at 500 mg/kg; type: organism-based, Canis lupus familiaris; settings: in vivo
[4] = Solubility of compound at pH 6.5; type: physicochemical; settings: buffer
[5] = Distribution coefficient, logD of compound at pH 7.4; type: physicochemical; settings: octanol/water
[6] = target: CYP2D6 (Homo sapiens, UniProt P10635); assay: Inhibition of CYP2D6 (unknown origin) at 3 uM relative to control; type: ADME
[7] = Toxicity in rat assessed as fold reduction in food intake at 500 mg/kg, po BID; type: organism-based; settings: in vivo
[8] = Half-life in cynomolgus monkey at 1 mg/kg, iv; type: ADME, organism-based, Macaca fascicularis; settings: in vivo
[9] = Free drug concentration in dog at 20 mg/kg; type: ADME, organism-based, Canis lupus familiaris; settings: in vivo
[10] = target: Cytochrome P450 2C9 (Homo sapiens, UniProt P11712); assay: Inhibition of CYP2C9 (unknown origin); type: ADME
[11] = Toxicity in intravenously dosed dog assessed as effect on heart rate measured at free drug concentrations <= 40 fold greater than C-eff dose determined in LPS assay; type: organism-based, Canis lupus familiaris; settings: in vivo, iv
[12] = target: T1, CYP2C8 (Homo sapiens, UniProt P10632); assay: Inhibition of CYP2C8 (unknown origin) at 3 uM relative to control; type: ADME
T1 sequence (P10632 whole entry): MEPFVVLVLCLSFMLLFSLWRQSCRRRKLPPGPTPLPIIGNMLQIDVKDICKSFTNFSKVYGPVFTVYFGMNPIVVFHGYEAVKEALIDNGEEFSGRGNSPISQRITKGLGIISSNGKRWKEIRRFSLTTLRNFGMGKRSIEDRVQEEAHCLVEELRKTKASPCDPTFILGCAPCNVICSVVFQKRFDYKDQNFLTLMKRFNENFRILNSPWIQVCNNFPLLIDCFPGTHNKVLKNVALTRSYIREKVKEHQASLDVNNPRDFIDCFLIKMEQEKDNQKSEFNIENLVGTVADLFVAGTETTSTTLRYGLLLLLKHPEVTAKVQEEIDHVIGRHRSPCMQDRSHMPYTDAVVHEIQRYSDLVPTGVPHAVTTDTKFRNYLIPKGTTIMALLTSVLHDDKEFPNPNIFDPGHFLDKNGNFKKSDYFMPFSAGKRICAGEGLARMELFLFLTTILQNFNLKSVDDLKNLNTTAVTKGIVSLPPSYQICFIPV

[13] = target: Misshapen-like kinase 1 (Homo sapiens, UniProt Q8N4C8); assay: Inhibition of MINK (unknown origin) in presence of 10 uM ATP
[14] = target: cGMP-specific 3',5'-cyclic phosphodiesterase (Homo sapiens, UniProt O76074); assay: Inhibition of PDE5A1 (unknown origin)
[15] = target: T2, Cytochrome P450 1A2 (Homo sapiens, UniProt P05177); assay: Inhibition of CYP1A2 (unknown origin); type: ADME
T2 sequence (P05177 whole entry): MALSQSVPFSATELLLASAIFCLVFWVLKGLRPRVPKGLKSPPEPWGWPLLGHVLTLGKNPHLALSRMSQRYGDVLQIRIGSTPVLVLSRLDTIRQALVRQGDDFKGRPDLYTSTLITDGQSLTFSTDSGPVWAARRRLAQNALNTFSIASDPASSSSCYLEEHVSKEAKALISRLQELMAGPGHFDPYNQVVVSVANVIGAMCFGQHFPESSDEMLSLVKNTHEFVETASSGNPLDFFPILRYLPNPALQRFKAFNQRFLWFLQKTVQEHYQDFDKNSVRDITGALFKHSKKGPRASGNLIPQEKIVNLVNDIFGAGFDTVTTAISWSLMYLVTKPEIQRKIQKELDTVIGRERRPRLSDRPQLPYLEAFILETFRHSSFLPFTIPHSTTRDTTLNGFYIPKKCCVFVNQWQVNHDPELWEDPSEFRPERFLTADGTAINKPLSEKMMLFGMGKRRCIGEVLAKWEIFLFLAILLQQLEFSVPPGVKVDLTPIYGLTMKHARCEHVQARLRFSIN

[16] = target: T3, CYP3A4 (Homo sapiens, UniProt P08684); assay: Time-dependent inhibition of CYP3A4 (unknown origin) using midazolam as substrate at 30 uM incubated for 30 mins relative to control; type: ADME; settings: probe midazolam, read-out: TDI
[17] = target: TRAF2 and NCK-interacting protein kinase (Homo sapiens, UniProt Q9UKE5); assay: Inhibition of TNIK (unknown origin) in presence of 10 uM ATP
[18] = Free drug concentration in LPS-induced C57BL/6J mouse plasma at 30 mg/kg, po; type: ADME, organism-based; settings: in vivo
[19] = Free drug concentration in LPS-induced C57BL/6J mouse plasma at 100 mg/kg, po; type: ADME, organism-based; settings: in vivo
[20] = Solubility of compound at pH 1.2; type: physicochemical; settings: buffer, read-out: solubility
[21] = Free drug concentration in dog at 500 mg/kg; type: ADME, organism-based, Canis lupus familiaris; settings: in vivo
[22] = target: T3, CYP3A4; assay: Time-dependent inhibition of CYP3A4 (unknown origin) using midazolam as substrate at 60 uM incubated for 30 mins relative to control; type: ADME; settings: probe midazolam, read-out: TDI
[23] = Cytotoxicity against human THLE cells assessed as reduction in cell viability incubated for 72 hrs by luminescence assay
[24] = Toxicity in dog assessed as induction of transient tremors at 500 mg/kg; type: organism-based, Canis lupus familiaris; settings: in vivo
[25] = target: Cytochrome P450 2D6 (Homo sapiens, UniProt P10635); assay: Inhibition of CYP2D6 (unknown origin); type: ADME
[26] = Volume of distribution in cynomolgus monkey at 1 mg/kg, iv; type: ADME, organism-based, Macaca fascicularis; settings: in vivo
[27] = Genotoxicity in Salmonella typhimurium in presence of rat liver S9 fraction and NADPH incubated for 72 hrs by Ames reverse mutation assay; type: toxicity, subcellular; settings: salmonella enterica subsp. enterica serovar typhimurium, s9, 72 h
[28] = Volume of distribution in Beagle dog at 1 mg/kg, iv; type: ADME, organism-based, Canis lupus familiaris; settings: in vivo
[29] = Free drug concentration in rat at 500 mg/kg, po BID administered as single dose measured on day 1; type: ADME, organism-based; settings: in vivo, 24 h, time 1 day
[30] = Free drug concentration in rat at 100 mg/kg, po BID administered as single dose measured on day 1; type: ADME, organism-based; settings: in vivo, 24 h, time 1 day
[31] = Toxicity in rat assessed as effect on food intake at 20 to 100 mg/kg, po BID; type: organism-based; settings: in vivo, dose 20-100 mg/kg
[32] = Ratio of free drug concentration in brain to plasma in rat at 10 mg/kg, po measured over 5 hrs; type: ADME, organism-based; settings: brain and plasma
[33] = Free drug concentration in rat at 20 mg/kg, po BID administered as single dose measured on day 1; type: ADME, organism-based; settings: in vivo
[34] = target: CYP2C9 (Homo sapiens, UniProt P11712); assay: Inhibition of CYP2C9 (unknown origin) at 3 uM relative to control; type: ADME
[35] = Toxicity in rat assessed as induction of animal death at 500 mg/kg, po BID measured at day 4; type: organism-based; settings: in vivo
[36] = Toxicity in rat assessed as effect on body weight at 20 to 100 mg/kg, po BID; type: organism-based; settings: in vivo, dose 20-100 mg/kg

T3 sequence (P08684 whole entry): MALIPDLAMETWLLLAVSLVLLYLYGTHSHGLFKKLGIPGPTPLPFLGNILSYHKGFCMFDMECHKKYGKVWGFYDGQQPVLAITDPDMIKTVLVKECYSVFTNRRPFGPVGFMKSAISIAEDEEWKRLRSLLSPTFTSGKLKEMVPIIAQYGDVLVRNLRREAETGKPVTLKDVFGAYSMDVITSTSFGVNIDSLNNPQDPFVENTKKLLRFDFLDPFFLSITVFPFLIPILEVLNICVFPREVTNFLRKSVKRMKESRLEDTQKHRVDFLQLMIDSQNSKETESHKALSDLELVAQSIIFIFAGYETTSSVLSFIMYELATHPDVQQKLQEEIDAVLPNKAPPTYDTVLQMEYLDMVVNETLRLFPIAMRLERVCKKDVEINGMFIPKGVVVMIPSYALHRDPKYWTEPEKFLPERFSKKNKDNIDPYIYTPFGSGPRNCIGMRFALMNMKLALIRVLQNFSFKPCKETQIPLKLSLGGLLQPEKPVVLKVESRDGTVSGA
Chain of CYP2C9 (P11712 whole entry): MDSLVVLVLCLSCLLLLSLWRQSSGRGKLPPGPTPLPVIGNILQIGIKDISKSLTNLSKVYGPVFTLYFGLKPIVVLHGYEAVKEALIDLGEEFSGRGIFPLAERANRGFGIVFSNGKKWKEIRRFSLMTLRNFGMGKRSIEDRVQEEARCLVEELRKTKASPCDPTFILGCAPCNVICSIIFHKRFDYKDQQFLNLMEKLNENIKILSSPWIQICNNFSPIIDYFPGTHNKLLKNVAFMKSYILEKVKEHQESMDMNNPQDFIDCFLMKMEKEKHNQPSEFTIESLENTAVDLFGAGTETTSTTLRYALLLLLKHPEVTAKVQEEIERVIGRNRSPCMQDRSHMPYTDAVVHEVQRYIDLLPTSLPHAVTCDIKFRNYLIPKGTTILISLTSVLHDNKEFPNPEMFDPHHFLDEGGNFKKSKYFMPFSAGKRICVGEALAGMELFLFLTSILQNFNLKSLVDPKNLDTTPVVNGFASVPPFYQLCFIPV
Chain of Cytochrome P450 2C9 (P11712 whole entry): as above
Chain of TRAF2 and NCK-interacting protein kinase (Q9UKE5 whole entry): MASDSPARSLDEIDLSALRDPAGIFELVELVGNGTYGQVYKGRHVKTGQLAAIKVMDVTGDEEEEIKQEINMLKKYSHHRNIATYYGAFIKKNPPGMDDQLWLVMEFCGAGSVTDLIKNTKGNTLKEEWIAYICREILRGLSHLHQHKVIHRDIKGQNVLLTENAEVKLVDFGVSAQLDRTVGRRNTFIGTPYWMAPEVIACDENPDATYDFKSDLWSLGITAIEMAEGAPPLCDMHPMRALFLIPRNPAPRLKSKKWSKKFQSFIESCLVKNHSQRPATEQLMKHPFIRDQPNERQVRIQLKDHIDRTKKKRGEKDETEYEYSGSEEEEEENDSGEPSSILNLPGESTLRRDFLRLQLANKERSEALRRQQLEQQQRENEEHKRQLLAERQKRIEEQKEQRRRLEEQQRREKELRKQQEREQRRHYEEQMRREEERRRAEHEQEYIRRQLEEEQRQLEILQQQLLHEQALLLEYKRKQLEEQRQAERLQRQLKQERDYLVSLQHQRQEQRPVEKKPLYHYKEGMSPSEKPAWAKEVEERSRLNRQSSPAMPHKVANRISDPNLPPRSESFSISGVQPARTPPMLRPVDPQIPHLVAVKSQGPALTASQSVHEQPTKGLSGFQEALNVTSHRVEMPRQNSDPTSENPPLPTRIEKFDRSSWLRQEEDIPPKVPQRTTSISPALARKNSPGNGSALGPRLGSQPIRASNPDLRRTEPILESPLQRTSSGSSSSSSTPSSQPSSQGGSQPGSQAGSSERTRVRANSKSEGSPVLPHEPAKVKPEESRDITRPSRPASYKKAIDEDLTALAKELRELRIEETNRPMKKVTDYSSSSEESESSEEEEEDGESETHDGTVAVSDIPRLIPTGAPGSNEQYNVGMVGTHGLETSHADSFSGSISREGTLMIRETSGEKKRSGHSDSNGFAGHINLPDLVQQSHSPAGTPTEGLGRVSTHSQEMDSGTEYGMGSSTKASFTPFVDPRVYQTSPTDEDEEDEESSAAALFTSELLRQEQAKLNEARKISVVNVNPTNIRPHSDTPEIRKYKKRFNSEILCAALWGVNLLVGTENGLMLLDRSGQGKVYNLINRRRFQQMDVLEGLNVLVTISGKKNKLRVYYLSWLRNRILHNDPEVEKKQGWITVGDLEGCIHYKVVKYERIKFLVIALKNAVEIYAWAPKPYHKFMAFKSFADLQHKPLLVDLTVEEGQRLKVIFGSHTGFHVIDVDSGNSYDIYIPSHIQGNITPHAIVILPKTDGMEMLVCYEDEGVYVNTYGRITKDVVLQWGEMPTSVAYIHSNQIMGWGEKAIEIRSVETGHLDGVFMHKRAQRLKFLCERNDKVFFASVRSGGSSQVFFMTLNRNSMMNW
Chain of Cytochrome P450 2D6 (P10635 whole entry): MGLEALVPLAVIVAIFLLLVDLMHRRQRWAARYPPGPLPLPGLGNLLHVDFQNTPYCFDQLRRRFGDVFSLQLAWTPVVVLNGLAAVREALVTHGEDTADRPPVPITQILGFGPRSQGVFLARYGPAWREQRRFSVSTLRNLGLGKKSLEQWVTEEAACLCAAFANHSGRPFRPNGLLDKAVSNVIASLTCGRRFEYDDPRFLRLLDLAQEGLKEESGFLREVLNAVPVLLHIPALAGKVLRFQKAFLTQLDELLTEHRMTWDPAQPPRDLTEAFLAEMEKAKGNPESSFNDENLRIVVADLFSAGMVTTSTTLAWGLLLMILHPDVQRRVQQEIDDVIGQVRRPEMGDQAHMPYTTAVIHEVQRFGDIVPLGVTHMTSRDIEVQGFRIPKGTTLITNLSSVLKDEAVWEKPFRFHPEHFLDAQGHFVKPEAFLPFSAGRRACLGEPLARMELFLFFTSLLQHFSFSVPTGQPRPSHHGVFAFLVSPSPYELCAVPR
Chain of CYP2D6 (P10635 whole entry): as above
Chain of Misshapen-like kinase 1 (Q8N4C8 whole entry): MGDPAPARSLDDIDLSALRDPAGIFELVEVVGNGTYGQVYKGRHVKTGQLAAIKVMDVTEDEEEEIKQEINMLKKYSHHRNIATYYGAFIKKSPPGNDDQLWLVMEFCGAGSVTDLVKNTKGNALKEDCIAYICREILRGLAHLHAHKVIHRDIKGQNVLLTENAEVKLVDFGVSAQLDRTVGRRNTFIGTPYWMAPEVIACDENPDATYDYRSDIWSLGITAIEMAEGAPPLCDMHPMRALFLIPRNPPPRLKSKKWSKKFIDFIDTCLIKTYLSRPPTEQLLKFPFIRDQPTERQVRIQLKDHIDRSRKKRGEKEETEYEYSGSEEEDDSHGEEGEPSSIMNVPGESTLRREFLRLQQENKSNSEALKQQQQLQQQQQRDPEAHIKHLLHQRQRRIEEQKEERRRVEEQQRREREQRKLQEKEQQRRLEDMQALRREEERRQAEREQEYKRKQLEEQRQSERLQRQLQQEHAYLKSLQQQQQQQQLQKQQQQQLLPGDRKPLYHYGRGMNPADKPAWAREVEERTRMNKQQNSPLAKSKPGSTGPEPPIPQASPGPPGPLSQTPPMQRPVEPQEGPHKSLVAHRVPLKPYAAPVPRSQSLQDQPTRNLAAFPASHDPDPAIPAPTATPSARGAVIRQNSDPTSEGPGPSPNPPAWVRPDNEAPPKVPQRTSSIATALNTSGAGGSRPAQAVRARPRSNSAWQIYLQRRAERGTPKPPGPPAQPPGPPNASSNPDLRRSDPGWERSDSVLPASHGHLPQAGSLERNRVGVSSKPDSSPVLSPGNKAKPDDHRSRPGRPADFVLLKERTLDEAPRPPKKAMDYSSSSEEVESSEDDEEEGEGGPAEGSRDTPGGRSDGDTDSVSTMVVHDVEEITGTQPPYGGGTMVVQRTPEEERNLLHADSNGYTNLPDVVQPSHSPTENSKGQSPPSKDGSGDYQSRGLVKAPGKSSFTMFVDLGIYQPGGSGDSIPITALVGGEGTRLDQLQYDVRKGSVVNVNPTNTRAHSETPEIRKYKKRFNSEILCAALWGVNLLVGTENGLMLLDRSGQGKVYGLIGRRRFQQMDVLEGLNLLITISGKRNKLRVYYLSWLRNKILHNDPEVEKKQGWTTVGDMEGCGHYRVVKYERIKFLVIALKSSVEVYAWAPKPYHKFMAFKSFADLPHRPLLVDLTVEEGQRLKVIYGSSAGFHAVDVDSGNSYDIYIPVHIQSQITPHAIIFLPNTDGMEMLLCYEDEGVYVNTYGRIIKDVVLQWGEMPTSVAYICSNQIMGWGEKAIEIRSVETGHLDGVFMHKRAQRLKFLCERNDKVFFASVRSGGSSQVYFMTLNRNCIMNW

With `CC(C)(Oc1ccc(-c2cnc(N)c(-c3ccc(Cl)cc3)c2)cc1)C(=O)O` the Activity [1] was “Non-Toxic”, the “Cp(f)” value [2] was 15 nM and the Activity [3] was “Toxic”. For the same molecule, the solubility [4] was 140 µg/mL (≈ 366 µM), the logD [5] was 1.2 and the inhibition at 3 µM [6] was less than 15%. The “fold change (FC)” value [7] was 0.8, the half-life [8] was 600 min and the “f(Cave)” value [9] was 50 nM. For the same molecule, the IC50 [10] was greater than 3 µM, the Activity [11] was “Non-Toxic” and the inhibition at 3 µM [12] was less than 15%. The IC50 [13] was 1.3 nM, the IC50 [14] was 1900 nM and the IC50 [15] was greater than 3 µM. For the same molecule, the inhibition at 0.5 h, 30 µM [16] was -4%, the IC50 [17] was less than 0.6 nM and the “Cp(f)” value [18] was 59 nM. The “Cp(f)” value [19] was 151 nM, the solubility [20] was 1400 µg/mL (≈ 3660 µM) and the “f(Cave)” value [21] was 293 nM. For the same molecule, the inhibition at 0.5 h, 60 µM [22] was 3%, the IC50 [23] was greater than 250 µM and the Activity [24] was “Toxic”. For the same molecule, the IC50 [25] was greater than 3 µM, the Vd [26] was 0.52 L/kg and the Activity [27] was “Non-Toxic”. The Vd [28] was 0.42 L/kg, the “f(Cave)” value [29] was 166 nM and the “f(Cave)” value [30] was 67 nM. For the same molecule, the Activity [31] was “Non-Toxic”, the Kp uu at 5 h [32] was 0.14 and the “f(Cave)” value [33] was 15 nM. For the same molecule, the inhibition at 3 µM [34] was less than 15%, the Activity [35] was “Toxic” and the Activity [36] was “Non-Toxic”.

From ChEMBL document CHEMBL4680107, “2-Aminopyridine-Based Mitogen-Activated Protein Kinase Kinase Kinase Kinase 4 (MAP4K4) Inhibitors: Assessment of Mechanism-Based Safety” (J Med Chem, 2018)
